{"source": "PubChem BioAssay (NCI)", "system": "SN12K1 renal", "experiment": "growth of human tumour cells (NCI), 48 h", "note": "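Results reflect a 48-hour exposure of cells in 96-well plates to compound at five concentrations. TGI denotes the concentration required for complete inhibition of growth.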"}
{"smiles": "COC(=O)NC1C(C)OC(OC2C/C=C(/C)C3C=CC4C(OC5CC(OC6CCC(OC7CC(O)C(OC8CCC(O)C(C)O8)C(C)O7)C(C)O6)C(OC(C)=O)C(C)O5)C(C)CC(C)C4C3(C)/C(O)=C3/C(=O)OC4(CC(C=O)=CC(O)C4/C=C\\2C)C3=O)CC1(C)[N+](=O)[O-]", "note": "(stereo unspecified)", "values": [{"measurement": "TGI", "result": 753, "unit": "nM"}]}
